Measurements from article PMC9916778 (International Journal of Molecular Sciences, 2023).

Experiments:
THP1-Blue™ NF-κB cells = assay: Cell viability, CCK-8, serum-free medium; type: cell-based, human; conditions: THP1-Blue NF-κB cells, serum-free medium, 24 h treatment, CCK-8; read-out: IC50 ± SEM, cytotoxic effect
Experimental: The cells were cultivated in RPMI (Roswell Park Memorial Institute) 1640 medium (Biosera; Nuaille, France) supplemented with 10% fetal bovine serum (FBS) and antibiotics (100 U/mL penicillin and […] streptomycin) (both from Merck). All further experiments were performed in serum-free medium. The effect of the test compounds dissolved in DMF on cell viability after 24 h incubation was determined using a Cell Counting Kit-8 (CCK-8; Merck) according to the manufacturer’s instructions, similarly as previously described.

[1] = test system: A2780 ovarian carcinoma cells; assay: In vitro cytotoxicity (MTT assay), A2780; type: cell-based, human; conditions: MTT, 24 h incubation, ± standard deviation, triplicate; read-out: IC50, A2780
Experimental: (§1) The reference normal cell line of human fetal fibroblasts (MRC-5) was obtained from the same commercial source and maintained according to the producer’s instructions. The half-maximal inhibitory concentrations (IC50) were calculated from dose–response curves by means of the GraphPad Prism 6 software (GraphPad Software, San Diego, CA, USA).

PPARγ = assay: Immunocytochemical analysis of PPARγ expression and localisation; type: cell-based, human; conditions: 100 nM, 1 h pre-treatment, LPS-stimulated THP1-Blue NF-κB macrophages
Experimental: THP1-Blue™ NF-κB cells were seeded onto a µ-Slide 8 Well (Ibidi; Gräfelfing, Germany) and differentiated into macrophages by […] (PMA) at the final concentration of 50 ng/mL, as was described previously.
Differentiated macrophages were washed by PBS and covered by fresh serum-free medium for 2 h. […] One hour later, the cells were challenged by LPS for 24 h. Then, the cells were washed by PBS and fixed by 4% paraformaldehyde dissolved in PBS for 10 min. Cell permeabilization and blocking of free binding sites were performed by 0.1% (v/v) Triton X100 and 5% (w/v) bovine serum albumin (BSA) dissolved in PBS for 1 h at room temperature. After that, cells were washed by PBS with 0.1% (v/v) Tween 20 and covered by fresh PBS with 5% BSA and 0.1% Tween 20 containing Alexa Fluor® 546-labelled anti-PPARγ antibody diluted 1:100 (catalogue number sc-7273; Santa Cruz Biotechnology; Dallas, TX, USA) for a further 24 h. Then, cells were washed by PBS with 0.1% Tween 20 and incubated with Hoechst stain diluted 1:2000 for 10 min. The remaining stain was washed out by PBS and covered by fresh PBS for further microscope analysis. The confocal microscope Leica TCS SP8 MP (Leica Microsystems, Mannheim, Germany) was used for obtaining the images for the immunocytochemical analysis of PPARγ expression and localization.

[2] = test system: human cancer cell lines (A2780, A2780R, PC-3, 22Rv1, and THP-1); assay: In vitro cytotoxicity, summary statements over the panel of cell lines; type: cell-based; conditions: read-out: IC50 of kinetin; A2780, A2780R, PC-3; concentration range 0.01–25 μM
Experimental: as §1, with “The testing was performed on the ovarian carcinoma (A2780), Cisplatin-resistant ovarian carcinoma (A2780R), prostate adenocarcinoma (PC-3), prostate carcinoma (22Rv1), and leukemia monocytic (THP-1) and intestinal colon adenocarcinoma (LS180) human cell lines that were obtained from the ATCC collection of cell lines and cultivated according to the producer’s instructions. The reference” for “The reference”

[3] = test system: MRC5 human fetal fibroblasts; assay: In vitro cytotoxicity (MTT assay), normal MRC-5 fibroblasts; type: cell-based; conditions: ± standard deviation, triplicate, read-out: IC50, MRC5 (healthy cells)
Experimental: as §1, with “The testing was performed on the ovarian carcinoma (A2780), Cisplatin-resistant ovarian carcinoma (A2780R), prostate adenocarcinoma (PC-3), prostate carcinoma (22Rv1), and leukemia monocytic (THP-1) and intestinal colon adenocarcinoma (LS180) human cell lines that were obtained from the ATCC collection of cell lines and cultivated according to the producer’s instructions. The reference” for “The reference”

[4] = test system: PC-3 prostate adenocarcinoma cells; assay: In vitro cytotoxicity (MTT assay), PC-3; type: cell-based, human; conditions: ± standard deviation, triplicate
Experimental: as §1, with “The testing was performed on the ovarian carcinoma (A2780), Cisplatin-resistant ovarian carcinoma (A2780R), prostate adenocarcinoma (PC-3), prostate carcinoma (22Rv1), and leukemia monocytic (THP-1) and intestinal colon adenocarcinoma (LS180) human cell lines that were obtained from the ATCC collection of cell lines and cultivated according to the producer’s instructions. The reference” for “The reference”

[5] = test system: A2780R Cisplatin-resistant ovarian carcinoma cells; assay: In vitro cytotoxicity (MTT assay), A2780R; type: cell-based, human; conditions: ± standard deviation, triplicate
Experimental: as §1, with “The testing was performed on the ovarian carcinoma (A2780), Cisplatin-resistant ovarian carcinoma (A2780R), prostate adenocarcinoma (PC-3), prostate carcinoma (22Rv1), and leukemia monocytic (THP-1) and intestinal colon adenocarcinoma (LS180) human cell lines that were obtained from the ATCC collection of cell lines and cultivated according to the producer’s instructions. The reference” for “The reference”

MCF-7 cells = conditions: literature data ref 22; cited from earlier work
[6] = test system: 22Rv1 prostate carcinoma cells; assay: In vitro cytotoxicity (MTT assay), 22Rv1; type: cell-based, human; conditions: ± standard deviation, triplicate
Experimental: as §1, with “The testing was performed on the ovarian carcinoma (A2780), Cisplatin-resistant ovarian carcinoma (A2780R), prostate adenocarcinoma (PC-3), prostate carcinoma (22Rv1), and leukemia monocytic (THP-1) and intestinal colon adenocarcinoma (LS180) human cell lines that were obtained from the ATCC collection of cell lines and cultivated according to the producer’s instructions. The reference” for “The reference”

A2780 cells [7] = assay: Intracellular ROS/superoxide production; type: cell-based, human; conditions: A2780, half-cytotoxic concentration, 24 h, with or without pyocyanin
Experimental: ROS induction in A2780 cells after incubation with 4 μM complex (1) was studied using a ROS-ID® Total ROS/Superoxide detection kit (Enzo Life Sciences, Farmingdale, NY, USA) according to the manufacturer’s protocol. The cells were seeded in a 96-well cell culture plates at 10^4 cells per well and cultivated for 24 h, followed by 24 h experimental treatment. Then, the cells were stained with ROS/superoxide probe mixture and incubated at 37 °C in the dark for 60 min. Finally, the fluorescence was measured using a microplate reader Infinite M200Pro (Tecan, Männedorf, Switzerland). The control samples contained 500 µM pyocyanin, and three independent experiments were conducted, each in triplicate.

A2780 cells [8] = assay: Induction of apoptosis, Annexin V-FITC/PI staining; type: cell-based, human; conditions: A2780, half-cytotoxic concentration, 24 h
Experimental: (§2) The induction of cell death by complex (1) was studied by two methods in the A2780 cell line. Firstly, the induction of apoptosis was tested using an Annexin V-FITC/PI commercial kit (V13242, Thermo Fisher Scientific, USA). Second, caspase 3/7 activation was monitored using the CellEvent™ Caspase-3/7 Green Flow Cytometry Assay Kit (C10427, Thermo Fisher Scientific, USA). Both assays were performed according to the manufacturers’ protocols with one modification in the caspase induction assay: the use of CellEvent^TM Caspase-3/7 Green Detection Reagent was only for the detection of caspase 3/7 activation. The general procedure was as follows: 5 × 10^4 cells per well were seeded in a 24-well cell culture plate, and after 24 h, the cells were treated with 4 µM solution of complex (1) and cultivated for next 24 h. […] The trypsin was blocked by adding the cell culture medium to a final volume of 500 µL, and the resulting cell suspensions were divided into two separate 250 µL aliquots. The first set of aliquots was used to evaluate the Annexin V-FITC/PI assay, whilst the second one was used for the caspase 3/7 activation assay. Both assays were performed using a BD FACSVerse flow cytometer (Becton Dickinson, USA) in three independent experiments, each performed in duplicate.

A2780 cells [9] = assay: Cell cycle analysis (flow cytometry); type: cell-based, human; conditions: A2780, half-cytotoxic concentration, 24 h
Experimental: After 24 h, the cells were treated with a 4 µM solution of complex (1) and cultivated for the next 24 h. Then, the cells were washed once with PBS (0.1 M, pH 7.4), and cell cycle analysis was performed using a BD Cycletest^TM Plus DNA kit (Becton Dickinson, Franklin Lakes, NJ, USA) according to the manufacturer’s protocol. The data were acquired using a BD FACSVerse flow cytometer (Becton Dickinson, USA) in three independent experiments, each performed in duplicate, while at least 5 × 10^3 events were recorded for each sample.

A2780 cells [10] = assay: Mitochondrial membrane potential analysis (MITO-ID); type: cell-based, human; conditions: A2780, half-cytotoxic concentration, 24 h
Experimental: The A2780 cells were seeded in 24-well cell culture plates at 5 × 10^4 cells/well and cultivated for 24 h. The next day, the complex (1) was added to a final concentration of 4 µM, and the cells were incubated for another 24 h. […] The cells were then isolated by centrifugation and resuspended in a staining solution prepared according to the manufacturer’s protocol from a MITO-ID® Membrane Potential Detection kit (Enzo Life Sciences, USA). Finally, the cells were analyzed using a BD FACSVerse flow cytometer (Becton Dickinson, USA). The control was carried out by treatment with 2 µM carbonyl cyanide 3-chlorophenylhydrazone (CCCP). Three independent experiments were conducted, each in duplicate.

A2780 cells [11] = assay: Induction of autophagy (CYTO-ID kit); type: cell-based, human; conditions: A2780, half-cytotoxic concentration, 24 h
Experimental: The induction of autophagy by complex (1) was studied using a CYTO-ID® Autophagy Detection Kit 2.0 (ENZO, New York, NY, USA) according to the manufacturer’s protocol. Briefly, the A2780 cells were seeded in a 24-well cell culture plate at 5 × 10^4 cells per well and cultivated for 24 h. The next day, the cells were treated with complex (1) at 4 µM. […] Then, the cells were stained with CYTO-ID® Green stain solution and incubated for 30 min in the dark. After the final wash with PBS, the cell suspensions were analyzed using the BD FACSVerse flow cytometer (Becton Dickinson, USA) in three separate experiments, while at least 10^4 events were recorded for each sample prepared in duplicates. The cells incubated with the mixture of chloroquine (10 µM) and rapamycin (0.5 µM) for 18 h were used as a positive control.

[12] = test system: LS180 intestinal colon adenocarcinoma cells; assay: In vitro cytotoxicity (MTT assay), LS180; type: cell-based, human; conditions: ± standard deviation, triplicate
Experimental: as §1, with “The testing was performed on the ovarian carcinoma (A2780), Cisplatin-resistant ovarian carcinoma (A2780R), prostate adenocarcinoma (PC-3), prostate carcinoma (22Rv1), and leukemia monocytic (THP-1) and intestinal colon adenocarcinoma (LS180) human cell lines that were obtained from the ATCC collection of cell lines and cultivated according to the producer’s instructions. The reference” for “The reference”

caspases 3/7 = assay: Caspase 3/7 activation (flow cytometry); type: cell-based, human; conditions: A2780, half-cytotoxic concentration, 24 h
Experimental: as §2

| Molecule | IC50 (THP1-Blue™ NF-κB cells) | IC50 [1] | Effect on the amount of PPARγ (PPARγ) | IC50 [2] | IC50 [3] | IC50 [4] | IC50 [5] | IC50 (MCF-7 cells) | IC50 [6] | Intracellular oxidative stress, ROS and superoxide levels (A2780 cells [7]) | Cells in early and late-stage apoptosis (A2780 cells [8]) | Effect on the cell cycle (A2780 cells [9]) | Number of cells in the G0/G1 phase (A2780 cells [9]; vs untreated control) | Damage to mitochondrial membranes (A2780 cells [10]) | Induction of autophagy (A2780 cells [11]) | IC50 [12] | Cells with active executioner caspases 3/7 (caspases 3/7) |
| --- | --- | --- | --- | --- | --- | --- | --- | --- | --- | --- | --- | --- | --- | --- | --- | --- | --- |
| 6-furfuryladenine [Kinetin] | > 10 µM | > 25 µM | did not show this effect | > 25 µM | > 25 µM | > 25 µM | > 25 µM | 52 µM |  |  |  |  |  |  |  |  |  |
| N.N.[Cl][Pt][Cl] [Cisplatin] |  |  |  |  | > 50 µM | > 50 µM | > 50 µM |  | 28.2 ± 4.2 µM | did not cause a significant increase in the intracellular oxidative stress | around 40% | arrested a significant number of cells in S-phase | significant decrease in the number of cells in the G0/G1 phase | Significant changes in mitochondrial membrane permeability | significantly induced the autophagy | > 50 µM | around 50% |
